# Data published in patent US11474106B2, “Methods for cytotoxic chemotherapy-based predictive assays” (ACCELERATED MEDICAL DIAGNOSTICS, INC., priority 2015, dated 2022).
# How the values were obtained:
# PDX Model BL0440 = test: Drug-DNA adduct frequency in PDX tumor tissue by AMS; type: in vivo, NSG mice; details: microdose 0.092 mg/kg gemcitabine, 24 h
# Source text: (§1) Female NSG mice (5-8 weeks of age, body weight: 20 to 25 g) were obtained from Jackson Laboratories (CA, USA). All animals were kept under pathogen-free conditions and were allowed to acclimatize for at least 4 days prior to any experiments. PDX models bearing the indicated patient derived xenografts were created by subcutaneous injection at the flank of 1 mm^3 tumor tissue. To establish multiple PDXs to allow efficacy studies with multiple drugs, PDXs from passage 2-4 were minced into 1 mm^3 sections and injected subcutaneously into multiple mice. At least 3 mice were used for each treatment group. Tumors were allowed to grow to at about 100 mm^3 before being assessed for drug sensitivity or the induction of DNA adducts by the administration of a microdose or a therapeutic dose of labeled drug. […] Tumor growth was assessed by measuring palpable tumors with a caliper and calculating tumor volume. Drug-DNA adduct frequencies were measured in tumor tissue collected 24 hours after intravenous injection of labeled drug and stored at −80° C. until DNA isolation. DNA was isolated using a modified Wizard procedure (Promega), quantitated by spectrophotometry, and then stored frozen at −20° C. until AMS analysis. Ten micrograms of DNA per sample was converted to graphite and measured by AMS for 14C quantification as previously described. […]
# PDX Model BL0293 = test: as above; type: in vivo, NSG mice; details: microdose 0.092 mg/kg gemcitabine, 24 h
# Source text: as §1
# PDX Model BL0269 = test: as above; type: in vivo, NSG mice
# Source text: (§2) Female NSG mice (5-8 weeks of age, body weight: 20 to 25 g) were obtained from Jackson Laboratories (CA, USA). All animals were kept under pathogen-free conditions and were allowed to acclimatize for at least 4 days prior to any experiments. PDX models bearing the indicated patient derived xenografts were created by subcutaneous injection at the flank of 1 mm^3 tumor tissue. To establish multiple PDXs to allow efficacy studies with multiple drugs, PDXs from passage 2-4 were minced into 1 mm^3 sections and injected subcutaneously into multiple mice. At least 3 mice were used for each treatment group. Tumors were allowed to grow to at about 100 mm^3 before being assessed for drug sensitivity or the induction of DNA adducts by the administration of a microdose or a therapeutic dose of labeled drug. To assess tumor response to chemotherapy, cisplatin was administered at 2 mg/kg IV every 7 days for a total of 3 cycles, or gemcitabine was administered at 150 mg/kg IP every 7 days for a total of 4 cycles. G/C combination chemotherapy consisted of the simultaneous administration of both drugs using the schema described above. Tumor growth was assessed by measuring palpable tumors with a caliper and calculating tumor volume. Drug-DNA adduct frequencies were measured in tumor tissue collected 24 hours after intravenous injection of labeled drug and stored at −80° C. until DNA isolation. DNA was isolated using a modified Wizard procedure (Promega), quantitated by spectrophotometry, and then stored frozen at −20° C. until AMS analysis. Ten micrograms of DNA per sample was converted to graphite and measured by AMS for 14C quantification as previously described.
# (§3) NSG mice bearing the indicated PDX tumors were injected with a microdose of ^14C-labeled carboplatin (FIG. 22A) or ^14C-labeled gemcitabine (FIG. 22B). The microdose of ^14C-labeled carboplatin was 0.375 mg/kg carboplatin, 50,000 dpm/g. The microdose of ^14C-labeled gemcitabine was 0.092 mg/kg gemcitabine, 1000 dpm/g. The doses of each drug administered to the mice were chosen to target 1 μM in plasma concentration of carboplatin and 0.3 μM in plasma concentration of gemcitabine. These plasma concentrations represent 1% of the approximate peak plasma concentration during human chemotherapy. Animals were sacrificed after 24 h and drug-DNA adduct frequency was determined from collected tumor tissue by AMS measurements of ^14C in tumor DNA. Carboplatin DNA-adduct levels correlate with PDX model sensitivity to cisplatin at 24h after microdosing (FIG. 22A). […]
# (§4) In this example we test whether gemcitabine/carboplatin (G/Carbo) combination therapy has an effect on the formation of drug-DNA adducts in this synergistic tumor model. […] Carboplatin-DNA monoadducts were measured in tumor tissue 24 h after dosing. […]
# PDX Model BL0645 = test: as above; type: in vivo, NSG mice; details: 24 h
# Source text: as §2, §3, §4
# A549 = test: MTT assay (IC50); type: cell-based, human
# Experimental: Six non-small cell lung cancer (NSCLC) cell lines were treated in culture with [^14C]carboplatin. Carboplatin-DNA monoadduct levels over time were determined by measuring ^14C content in genomic DNA with accelerator mass spectrometry (AMS). Cellular sensitivity to carboplatin and cisplatin was analyzed by the MTT assay (Henderson et al., International Journal of Cancer 2011).
# Human NSCLC cell lines H23, H460, H727, HCC827, H1975, and A549 were purchased from ATCC and were cultured with the recommended medium. The MTT assay was performed as previously reported to determine the drug concentration required to inhibit cell growth by 50% (IC50) of cisplatin and carboplatin. [^14C]Carboplatin (at 53 mCi/mmol) was mixed with unlabeled carboplatin to achieve the specific activities required for microdoses and therapeutic doses. Table 1 lists the six NSCLC cell lines and summarizes their IC50 characteristics, induced carboplatin-DNA monoadducts when treated with [^14C]carboplatin, and p and r^2 values for correlation analysis to the IC50 concentrations.
# 5637 = test: MTT assay (IC50); type: cell-based, human
# Experimental: Thus, we measured the IC50 of the six NSCLC cell lines from Example 2 to both cisplatin and carboplatin to determine if the sensitivity of these six NSCLC cell lines to the two drugs are correlated.
# The cell lines were purchased from the American Type Culture Collection (ATCC, Manassas, Va.) and cultured in the recommended media.
# Drug-DNA adduct formation and repair was measured by accelerator mass spectrometry.
# These two cell lines were also cultured with a range of concentrations of cisplatin, carboplatin, gemcitabine, doxorubicin, methotrexate and vinblastine for 72 hours to determine IC50 for these other drugs (FIG. 16C). These drugs were chosen because of their frequent use in the treatment of bladder cancer.
SMILES,gemcitabine adduct levels (PDX Model BL0440),gemcitabine adduct levels (PDX Model BL0293),"gemcitabine-DNA adduct levels (PDX Model BL0269; BL0269 control experiment (FIG. 23F), microdose gemcitabine 0.092 mg/kg, alone or with carboplatin 0.375 mg/kg)","gemcitabine adduct levels (PDX Model BL0269; BL0269 tumor DNA, microdose 0.092 mg/kg gemcitabine, 24 h (FIG. 22B))","gemcitabine adduct level (PDX Model BL0645; BL0645, therapeutic dose gemcitabine 9.2 mg/kg, alone or with carboplatin 37.5 mg/kg)","gemcitabine adduct levels (PDX Model BL0645; BL0645 tumor DNA, microdose 0.092 mg/kg gemcitabine, alone or with carboplatin 0.375 mg/kg)",IC50 (A549) [nM],IC50 (5637; 5637 (Table 2)) [nM],"IC50 (5637; 5637 (parental, Example 11), MTT, 72 hours) [nM]"
"Nc1ccn([C@@H]2O[C@H](CO)[C@@H](O)C2(F)F)[14c](=O)n1 [[^14C]gemcitabine, 2′-Deoxy-2′,2′-difluorocytidine, [cytosine-2-^14C]-]",13.1±10.2,10.0±5.92,2.44±0.492 adducts per 10^8 nucleotides,3.17±0.278,169.2±9.129 adducts per 10^8 nucleotides,2.44±0.880 adducts per 10^8 nucleotides,–,–,–
N.N.[Cl][Pt][Cl] [cisplatin],–,–,–,–,–,–,26300 ± 9260,2430 ± 450,590
